Measurements: patent US20260263651A1, “WOUND DRESSING” (UNIVERSITY OF SUNDERLAND, priority 2023, published 2026)

Experiments:
Type in all cases: cell-based
Staphylococcus aureus [1] = assay: Microbiological evaluation of overnight bacteria suspensions, modified alginate wound dressing with absorbed substrate on agar; conditions: SA overnight culture, 24 h incubation at 37° C.
Description: (§1) ACTIVHEAL® simply A (10×20 cm) non-adhesive foam samples were provided by Advanced Medical Solutions Ltd. The wound dressings were cut into ~5-10×5-10 mm squares, using an ethanol washed pair of scissors. A maximum of 0.20 g of the material was added into 10 mL DI water, and the pH was adjusted to ~3 by the addition of 0.1 M aq. HCl solution. The solution was stirred for 10 mins at room temperature, followed by the addition of 0.33 g EDC •HCl (1.7 mmol) and the pH was maintained at ~3 by the addition of 0.1 M aq. HCl solution. The solution was stirred at room temperature for 10 mins followed by the addition of 0.88 g compound 8 which was dissolved in DMSO or DMF. The mixture was stirred at room temperature for 48 h. The wound dressings were filtered and were washed with ethanol. To ensure the full removal of any non-coupled amide (8), the foam samples were resuspended in ethanol, stirred for 10 mins and filtered, and this process was repeated until the amide (8) was not detectable from the filtrate (this could be maintained by TLC or HPLC evaluation). The samples were dried in a vacuum oven for 3-4 h.
(§2) The aqueous solution of 3a or 3b was prepared by the following: the desired amount of the enzymatic substrate (3.0 mg for 300 mg/L, 6.0 mg for 600 mg/L, 9.0 mg for 900 mg/L, 15.0 mg for 1500 mg/L, and 30.0 mg for 3000 mg/L) was weighed out on a 4 decimal place balance within ±0.3 mg error limit into a 10 mL volumetric flask and was adjusted to 10.0 mL with DI water. The solutions were absorbed into the foam samples and dried in a vacuum oven at 40° C. overnight.
To model fluid exudate from a chronic wound, the wound dressing made according to ‘Modification of ActivHeal® Alginate’, above, was placed into an agar plate and the test pathogen was smeared over the surface of the agar.
The enzymatic substrates were tested in 4 different concentrations (300, 600, 900 and 3000 mg/L) using DI water as a solvent, and the solutions were absorbed into the wound dressing samples, which were dried overnight under vacuum at 40° C.
Two Gram negative strains (Escherichia coli—EC and Pseudomonas aeruginosa—PSA) and a Gram positive bacteria (Staphylococcus aureus—SA) were evaluated against the dimethyl (3a) and the diethyl (3b) substituted substrate. The overnight cultures were directly smeared from LB broth onto Columbia blood agar without measuring the OD. The wound dressings with the enzymatic substrate absorbed were placed onto the agar and were incubated overnight (see FIGS. 2-7).

Staphylococcus aureus [2] = assay: Microbiological evaluation of standardised bacterial suspensions, modified wound dressing with absorbed substrate on agar; design: key to Observable colour change: − indicates no colour change; +− indicates relatively discernible blue colour change; + indicates a moderately strong blue colour change; ++ indicates a strong blue colour change; conditions: for colour change: SA
Description: as §1, §2
(§3) Bacterial strains were routinely cultured from working stocks in Tryptic Soy Broth (TSB) and incubated at 37° C. overnight with shaking at 150 RPM. Overnight cultures were centrifuged at 3000×g for 5 minutes, the supernatant discarded, and the pellet resuspended in 10 mL phosphate buffered saline (PBS). Bacterial inoculums were standardised by optical density at 600 nm on an Amersham Biosciences Ultrospec 10 spectrophotometer (Amersham Biosciences, Amersham, UK) to contain between 1 and 3×10^8 CFU/mL.
(§4) However, rapid evaluation of lower bacteria concentrations is essential for the desired clinical application. […] The solutions were absorbed into the wound dressing samples, which were dried overnight under vacuum at 40° C.
(§5) Two Gram negative strains (Escherichia coli—EC and Pseudomonas aeruginosa—PSA) and a Gram-positive bacterium (Staphylococcus aureus—SA) were evaluated. The bacteria were incubated overnight, centrifuged at 3000×g for 5 mins, the supernatant was discarded, and the residue pellets were resuspended in 10 mL PBS. The inoculums were standardised by measuring the optical density at 600 nm to assure a 1-3×10^8 CFU/mL. The standardised solutions were further diluted to prepare 1-3×10^6 and 1-3×10^4 CFU/mL suspension. 1×10^6 CFU would be an ideal breakpoint for a positive result, as this concentration coincides well with a level of colonisation that would likely go on to produce an infection.
(§6) 100 μL bacterial suspensions were smeared over agar plates. Wound dressing samples were added to the top of the agar and were rolled over a few times (to ensure a full coverage and to ease the visibility of the colour change). The plates were incubated at 37° C., and the results were recorded after 24 h, after 48 h, after 72 h. The results are shown in Table 3-5; − indicates no colour change, +− indicates relatively discernible blue colour change, + indicates a moderately strong blue colour change and ++ indicates a strong blue colour change.

Pseudomonas aeruginosa = assay: as above; design: key to Observable colour change: − indicates no colour change; +− indicates relatively discernible blue colour change; + indicates a moderately strong blue colour change; ++ indicates a strong blue colour change
Description: as §1, §2, §3, §4, §5, §6

CC(C)C[C@H](N)C(=O)Nc1ccc(N(C)C)cc1.Cl [3a, (2S)-2-amino-N-[4-(dimethylamino)phenyl]-4-methyl-pentanamide hydrochloride]
Observable colour change (Staphylococcus aureus [1]; substrate 300 mg/L): None | Observable colour change (Staphylococcus aureus [1]; substrate 600 mg/L): Pale blue | Observable colour change (Staphylococcus aureus [1]; substrate 900 mg/L): None | Observable colour change (Staphylococcus aureus [1]; substrate 3000 mg/L): Light blue | Observable colour change (Staphylococcus aureus [2]; SA 10^4, substrate 300 mg/L, 24 h at 37° C.): − | Observable colour change (Staphylococcus aureus [2]; SA 10^4, substrate 300 mg/L, 48 h at 37° C.): − | Observable colour change (Staphylococcus aureus [2]; SA 10^4, substrate 300 mg/L, 72 h at 37° C.): − | Observable colour change (Staphylococcus aureus [2]; SA 10^4, substrate 900 mg/L, 24 h at 37° C.): − | Observable colour change (Staphylococcus aureus [2]; SA 10^4, substrate 900 mg/L, 48 h at 37° C.): − | Observable colour change (Staphylococcus aureus [2]; SA 10^4, substrate 900 mg/L, 72 h at 37° C.): − | Observable colour change (Staphylococcus aureus [2]; SA 10^4, substrate 1500 mg/L, 24 h at 37° C.): − | Observable colour change (Staphylococcus aureus [2]; SA 10^4, substrate 1500 mg/L, 48 h at 37° C.): − | Observable colour change (Staphylococcus aureus [2]; SA 10^4, substrate 1500 mg/L, 72 h at 37° C.): − | Observable colour change (Staphylococcus aureus [2]; SA 10^6, substrate 300 mg/L, 24 h at 37° C.): − | Observable colour change (Staphylococcus aureus [2]; SA 10^6, substrate 300 mg/L, 48 h at 37° C.): − | Observable colour change (Staphylococcus aureus [2]; SA 10^6, substrate 300 mg/L, 72 h at 37° C.): − | Observable colour change (Staphylococcus aureus [2]; SA 10^6, substrate 900 mg/L, 24 h at 37° C.): − | Observable colour change (Staphylococcus aureus [2]; SA 10^6, substrate 900 mg/L, 48 h at 37° C.): − | Observable colour change (Staphylococcus aureus [2]; SA 10^6, substrate 900 mg/L, 72 h at 37° C.): − | Observable colour change (Staphylococcus aureus [2]; SA 10^6, substrate 1500 mg/L, 24 h at 37° C.): − | Observable colour change (Staphylococcus aureus [2]; SA 10^6, substrate 1500 mg/L, 48 h at 37° C.): − | Observable colour change (Staphylococcus aureus [2]; SA 10^6, substrate 1500 mg/L, 72 h at 37° C.): − | Observable colour change (Staphylococcus aureus [2]; SA 10^8, substrate 300 mg/L, 24 h at 37° C.): − | Observable colour change (Staphylococcus aureus [2]; SA 10^8, substrate 300 mg/L, 48 h at 37° C.): − | Observable colour change (Staphylococcus aureus [2]; SA 10^8, substrate 300 mg/L, 72 h at 37° C.): − | Observable colour change (Staphylococcus aureus [2]; SA 10^8, substrate 900 mg/L, 24 h at 37° C.): − | Observable colour change (Staphylococcus aureus [2]; SA 10^8, substrate 900 mg/L, 48 h at 37° C.): − | Observable colour change (Staphylococcus aureus [2]; SA 10^8, substrate 900 mg/L, 72 h at 37° C.): − | Observable colour change (Staphylococcus aureus [2]; SA 10^8, substrate 1500 mg/L, 24 h at 37° C.): − | Observable colour change (Staphylococcus aureus [2]; SA 10^8, substrate 1500 mg/L, 48 h at 37° C.): +− | Observable colour change (Staphylococcus aureus [2]; SA 10^8, substrate 1500 mg/L, 72 h at 37° C.): +− | colour change (Staphylococcus aureus [2]; 48 h paragraph, substrate 1500 mg/L): weak, but discernible colour change | colour change (Staphylococcus aureus [2]; after 72 h, substrate 1500 mg/L): weak, hardly visible colour change | Observable colour change (Pseudomonas aeruginosa; PSA 10^4, substrate 300 mg/L, 24 h at 37° C.): − | Observable colour change (Pseudomonas aeruginosa; PSA 10^4, substrate 300 mg/L, 48 h at 37° C.): − | Observable colour change (Pseudomonas aeruginosa; PSA 10^4, substrate 300 mg/L, 72 h at 37° C.): + | Observable colour change (Pseudomonas aeruginosa; PSA 10^4, substrate 900 mg/L, 24 h at 37° C.): − | Observable colour change (Pseudomonas aeruginosa; PSA 10^4, substrate 900 mg/L, 48 h at 37° C.): +− | Observable colour change (Pseudomonas aeruginosa; PSA 10^4, substrate 900 mg/L, 72 h at 37° C.): ++ | Observable colour change (Pseudomonas aeruginosa; PSA 10^4, substrate 1500 mg/L, 24 h at 37° C.): − | Observable colour change (Pseudomonas aeruginosa; PSA 10^4, substrate 1500 mg/L, 48 h at 37° C.): − | Observable colour change (Pseudomonas aeruginosa; PSA 10^4, substrate 1500 mg/L, 72 h at 37° C.): ++ | Observable colour change (Pseudomonas aeruginosa; PSA 10^6, substrate 300 mg/L, 24 h at 37° C.): − | Observable colour change (Pseudomonas aeruginosa; PSA 10^6, substrate 300 mg/L, 48 h at 37° C.): − | Observable colour change (Pseudomonas aeruginosa; PSA 10^6, substrate 300 mg/L, 72 h at 37° C.): + | Observable colour change (Pseudomonas aeruginosa; PSA 10^6, substrate 900 mg/L, 24 h at 37° C.): − | Observable colour change (Pseudomonas aeruginosa; PSA 10^6, substrate 900 mg/L, 48 h at 37° C.): − | Observable colour change (Pseudomonas aeruginosa; PSA 10^6, substrate 900 mg/L, 72 h at 37° C.): ++ | Observable colour change (Pseudomonas aeruginosa; PSA 10^6, substrate 1500 mg/L, 24 h at 37° C.): − | Observable colour change (Pseudomonas aeruginosa; PSA 10^6, substrate 1500 mg/L, 48 h at 37° C.): +− | Observable colour change (Pseudomonas aeruginosa; PSA 10^6, substrate 1500 mg/L, 72 h at 37° C.): + | colour change (Pseudomonas aeruginosa; PSA 10^8, 10^6 or 10^4 CFU, after 72 h, every tested substrate concentration): moderate or strong blue colour changes | Observable colour change (Pseudomonas aeruginosa; PSA 10^8, substrate 300 mg/L, 24 h at 37° C.): − | Observable colour change (Pseudomonas aeruginosa; PSA 10^8, substrate 300 mg/L, 48 h at 37° C.): − | Observable colour change (Pseudomonas aeruginosa; PSA 10^8, substrate 300 mg/L, 72 h at 37° C.): + | Observable colour change (Pseudomonas aeruginosa; PSA 10^8, substrate 900 mg/L, 24 h at 37° C.): − | Observable colour change (Pseudomonas aeruginosa; PSA 10^8, substrate 900 mg/L, 48 h at 37° C.): + | Observable colour change (Pseudomonas aeruginosa; PSA 10^8, substrate 900 mg/L, 72 h at 37° C.): ++ | Observable colour change (Pseudomonas aeruginosa; PSA 10^8, substrate 1500 mg/L, 24 h at 37° C.): − | Observable colour change (Pseudomonas aeruginosa; PSA 10^8, substrate 1500 mg/L, 48 h at 37° C.): + | Observable colour change (Pseudomonas aeruginosa; PSA 10^8, substrate 1500 mg/L, 72 h at 37° C.): ++ | colour change (Pseudomonas aeruginosa; PSA, substrate 900 or 1500 mg/L, printed in the 48 h paragraph): moderate or strong colour change
